According to PMC10891803, “Seleno-Warfare against Cancer: Decoding Antitumor Activity of Novel Acylselenoureas and Se-Acylisoselenoureas” (Pharmaceutics, 2024):

Tests used:
DU-145 = experiment: MTT cell viability assay, DU-145; assay type: cell-based, human; conditions: 48 h; for percentage of cell growth, DU-145: 10 µM, MTT screening (Figure S1); for IC50: Homo sapiens, DU-145, MTT, mean ± SD of three experiments, read-out: IC50 DU-145 (Prostate)
Description: (§1) The cell lines were purchased from the American Type Culture Collection (ATCC). The four tumor cell lines used were as follows: MDA-MB-231 (triple-negative breast cancer), HTB-54 (lung cancer), DU-145 (prostate cancer), and HCT-116 (colon cancer), and the non-tumoral cell line 185-B5 (mammary tissue) were grown in Roswell Park Memorial Institute (RPMI) 1640 medium culture (Thermo Scientific, USA), supplemented with 10% fetal bovine serum (FBS) (Thermo Scientific, USA) and 1% of antibiotics (10,000 units/mL penicillin and 10 mg/mL streptomycin (Thermo Scientific, USA)). Cells were preserved in tissue culture flasks at 37 °C and 5% CO2. The culture medium was replaced every two to three days.
(§2) Cell viability was determined using the MTT colorimetric assay. A total of 10,000 cells were seeded in each well in a 96-well plate for 24 h. Then, cells were incubated with the corresponding concentration of each tested compound and with DMSO (1%) as control for 48 h. Each compound was dissolved in DMSO at a stock concentration of 0.01 M. Firstly, each compound was tested at 2 concentrations (10 µM and 50 µM) in four human tumoral cell lines MDA-MB-231, HTB-54, DU-145, and HCT-116. Serial dilutions from stock concentration with culture medium were prepared. […] The cell viability was determined by the addition of 20 µL of MTT and its incubation for 2.5 h. Later, the culture medium was removed, and 50 µL of DMSO was added to dissolve formazan crystals. The absorbance was measured at 550 nm. Inhibitory concentration 50 (IC50) and selectivity index (SI) were calculated. Three different experiments were performed independently.
(§3) Cell viability results are expressed as the mean ± standard deviation (SD), and experiments were independently performed thrice in triplicates. IC50 values were determined using a non-linear curve regression analysis calculated by OriginPro 9.0 software.

MDA-MB-231 = experiment: MTT cell viability assay, MDA-MB-231; assay type: cell-based, human; conditions: for percentage of cell growth, MDA-MB-231: 10 µM, MTT screening (Figure S1); for percentage of cell growth, MDA-MB-231 / IC50: 48 h; for IC50: Homo sapiens, MDA-MB-231, MTT, mean ± SD of three experiments, read-out: IC50 MDA-MB-231 (Breast); for Selectivity index (SI): IC50 184-B5/IC50 MDA-MB-231
Description: as §1, §2, §3

HTB-54 = experiment: MTT cell viability assay, HTB-54; assay type: cell-based, human; conditions: 48 h; for percentage of cell growth, HTB-54: 10 µM, MTT screening (Figure S1); for IC50: Homo sapiens, HTB-54, MTT, mean ± SD of three experiments, read-out: IC50 HTB-54 (Lung)
Description: as §1, §2, §3

HCT-116 = experiment: MTT cell viability assay, HCT-116; assay type: cell-based, human; conditions: 10 µM, 48 h, MTT screening (Figure S1)
Description: as §1, §2, §3

184-B5 = experiment: MTT cell viability assay, non-malignant 184-B5; assay type: cell-based; conditions: Homo sapiens, 48 h, mean ± SD of three experiments, read-out: IC50 184-B5 (Breast, non-tumoral)
Description: as §1, §2, §3

[1] = tested on: MDA-MB-231, HTB-54, DU-145, and HCT-116; experiment: MTT initial screening in four tumor cell lines; assay type: cell-based; conditions: Homo sapiens, in at least three cell lines, 48 h, read-out: cell growth inhibition
Description: as §2

[2] = tested on: panel of 60 cancer cell lines; experiment: NCI60 Five-Dose assay; assay type: cell-based; conditions: Five-Dose assay 0.01–100 µM, 48 h, 60 cell line panel
Description: (§4) The ten compounds with the highest cell growth inhibition activity were submitted to the Developmental Therapeutics Program (DTP) of the National Cancer Institute (NCI). The assay consists of the evaluation of the cytotoxicity by a One-Dose screening at 10^−5 M against a panel of 60 cancer cell lines of different tumors (leukemia, lung, central nervous system (CNS), melanoma, ovarian, renal, prostate, and breast cancer cell lines). […] A range of 5000–40,000 cells/well were seeded and cultured in RPMI 1640 containing 5% of FBS and 2 mM L-glutamine and were inoculated into 96-well microtiter plates in 100 µL. The microtiter plates are incubated at 37 °C and 5% humidified CO2 for 24 h prior to the addition of experimental drugs. After that, an experimental drug was added, and the microtiter was incubated for 48 h.

[3] = tested on: panel of 60 cancer cell lines; experiment: NCI60 One-Dose screening; assay type: cell-based; conditions: 1·10^−5 M, 48 h, mean of 60 cancer cell lines
Description: as §4

Compound | percentage of cell growth, DU-145 (DU-145) [%] | percentage of cell growth, MDA-MB-231 (MDA-MB-231) [%] | percentage of cell growth, HTB-54 (HTB-54) [%] | percentage of cell growth, HCT-116 (HCT-116) [%] | melting point [°C] | IC50 (DU-145) [µM] | IC50 (MDA-MB-231) [µM] | Selectivity index (SI) (MDA-MB-231) | IC50 (HTB-54) [µM] | IC50 (184-B5) [µM] | inhibition at 10 µM [1] [%] | GI50 [2] [µM] | mean value of cell growth, One-Dose assay [3] [%]
O=C(/C=C/c1cccs1)NC(=[Se])NC1CCCCC1 [Compound 13] | 52.85 | -21.69 | 39.11 | 145.89 | – | – | – | – | – | – | – | – | –
CC(C)N=C(NC(C)C)[Se]C(=O)Cc1cccs1 [Compound 5] | 143.58 | 115.35 | 92.05 | 139.96 | 108 to 110 | – | – | – | – | – | – | – | –
CC(=O)Oc1ccccc1C(=O)NC(=[Se])NC1CCCCC1 [Compound 9] | -44.19 | 1.88 | -7.60 | 117.25 | 79 to 81 | 8.76 ± 2.13 | 10.2 ± 0.29 | 1.11 | 29.8 ± 22.5 | 11.4 ± 18 | > 50 | – | –
CC(C)NC(=[Se])NC(=O)/C=C/c1ccc2c(c1)OCO2 [Compound 21] | 76.50 | -6.05 | 27.21 | 89.57 | 172 to 174 | – | – | – | – | – | – | – | –
CC(C)NC(=[Se])NC(=O)/C=C/c1cccs1 [Compound 20] | -13.89 | 65.39 | 38.63 | 109.34 | 148 to 149 | – | – | – | – | – | – | – | –
O=C(NC(=[Se])NC1CCCCC1)c1ccc2c(c1)OCO2 [Compound 12] | -74.14 | -7.07 | -34.26 | 76.40 | 117 to 119 | 5.22 ± 0.13 | 30.7 ± 2.31 | 1.28 | 10.7 ± 13.7 | 39.3 ± 18.4 | > 50 | – | –
CC(C)NC(=[Se])NC(=O)/C=C/c1ccccc1 [Compound 18] | 15.40 | 65.14 | 57.40 | 75.78 | – | – | – | – | – | – | – | – | –
CC(C)NC(=[Se])NC(=O)c1ccccc1 [Compound 15] | -80.57 | -59.41 | -57.90 | 123.90 | 125 to 127 | 5.19 ± 1.55 | 24.5 ± 7.55 | 0.34 | 26.4 ± 16.9 | 8.51 ± 4.81 | > 50 | < 2 | −31.58
CC(C)NC(=[Se])NC(=O)c1ccccc1O [Compound 22] | -6.12 | 73.13 | 3.08 | 80.19 | 162 to 164 | – | – | – | – | – | – | – | –
O=C(NC(=[Se])NC1CCCCC1)c1cccs1 [Compound 10] | -82.64 | 107.48 | -25.90 | 122.54 | 64 to 66 | 5.18 ± 0.19 | 10.1 ± 0.25 | 4.83 | 10.1 ± 4.88 | 49 ± 39.2 | > 50 | – | –
O=C(/C=C/c1ccccc1)[Se]C(=NC1CCCCC1)NC1CCCCC1 [Compound 2] | 118.17 | -19.52 | 74.82 | 120.40 | 156 to 158 | – | – | – | – | – | – | – | –
CC(C)N=C(NC(C)C)[Se]C(=O)c1cccs1 [Compound 6] | 124.09 | 124.62 | 111.26 | 122.83 | 120 to 122 | – | – | – | – | – | – | – | –
CC(C)NC(=[Se])NC(=O)c1cccs1 [Compound 17] | -72.56 | 20.49 | -22.97 | 115.35 | 120 to 122 | 5.12 ± 0.07 | 10.2 ± 0.39 | 4.15 | 5.09 ± 0.34 | 42.2 ± 11.4 | > 50 | – | –
O=C(/C=C/c1ccccc1)NC(=[Se])NC1CCCCC1 [Compound 11] | 50.53 | 71.20 | 57.39 | 103.12 | 140 to 142 | – | – | – | – | – | – | – | –
O=C(NC(=[Se])NC1CCCCC1)c1ccccc1 [Compound 8] | -90.24 | 15.90 | -18.34 | 104.00 | 71 to 73 | 8.83 ± 0.16 | 17.4 ± 5.09 | 1.55 | 14.6 ± 1.11 | 27 ± 5.2 | > 50 | – | –
CC(C)N=C(NC(C)C)[Se]C(=O)c1ccc2c(c1)OCO2 [Compound 7] | 131.68 | 119.84 | 108.33 | 105.51 | 138 to 140 | – | – | – | – | – | – | – | –
CC(=O)Oc1ccccc1C(=O)[Se]C(=NC1CCCCC1)NC1CCCCC1 [Compound 1] | -96.27 | 39.10 | -52.60 | 94.15 | 96 to 97 | 5.17 ± 0.32 | 8.56 ± 0.1 | 1.84 | 8.31 ± 1.01 | 15.8 ± 1.33 | > 50 | < 2 | −68.50
O=C(/C=C/c1ccc2c(c1)OCO2)NC(=[Se])NC1CCCCC1 [Compound 14] | 10.32 | 83.89 | 44.98 | 101.60 | 149 to 151 | – | – | – | – | – | – | – | –
CC(C)N=C(NC(C)C)[Se]C(=O)c1ccccc1 [Compound 3] | 149.27 | 129.19 | 109.68 | 119.69 | 163 to 165 | – | – | – | – | – | – | – | –
CC(C)NC(=[Se])NC(=O)c1ccc2c(c1)OCO2 [Compound 19] | -82.75 | -45.41 | -4.52 | 97.76 | – | 5.13 ± 0.02 | 12.7 ± 10.8 | 2.89 | 21.9 ± 9.1 | 36.8 ± 14.5 | > 50 | – | –
CC(=O)Oc1ccccc1C(=O)NC(=[Se])NC(C)C [Compound 16] | -67.79 | 24.61 | -0.98 | 86.98 | 75 to 77 | 11.4 ± 3.07 | 10.2 ± 13.6 | 2.17 | 23 ± 23.5 | 22.2 ± 3.41 | > 50 | – | –
